Reference: patent US10517889B2, “Modulators of SMAD7 expression” (Ionis Pharmaceuticals, Inc., priority 2017, dated 2019)
Values joined by “and” are separate entries in the source; they are usually repeats but may differ in a detail not shown here. Identical values can stand only once.

How the values were obtained:
murine Smad7 mRNA = experiment: Dose-dependent inhibition of murine Smad7 mRNA in bEND cells, electroporation (Example 5, Study 2); type: cell-based, mouse; settings: electroporation; for % inhibition of SMAD7 mRNA expression: approximately 16 hours
Procedure, shortened: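 Mouse bEND cells electroporated with oligonucleotide at several doses and treated for approximately 16 hours. Smad7 mRNA quantified by real-time RT-PCR (primer probe set RTS1114), normalised to total RNA by RiboGreen. Reported as percent inhibition relative to untreated cells.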

mouse Smad7 mRNA = experiment: Murine Smad7 mRNA expression after oral administration in BALB/c mice (Example 11); type: in vivo; settings: 500 mg/kg/day oral for 3 weeks, 24 hours after last dose
Description: The objective of this study was to evaluate the efficacy of Ionis SMAD7 antisense oligonucleotides in BALB/c mice following daily oral administration. The Ionis oligonucleotides are cross-reactive with mouse Smad7 mRNA.
Groups of BALB/c mice were orally administered 500 mg/kg/day for 3 weeks of human Smad7 oligonucleotides, ION 790615, ION 798781, or ION 830025, or mouse Smad7 oligonucleotide, ION 772797 (a 3-10-3 cEt gapmer with phosphorothioate backbone and sequence […]; designated herein as SEQ ID NO: 2743). One group of mice was orally administered PBS daily for 3 weeks. Each group contained 4 mice.
To evaluate the efficacy of the oligonucleotides, murine Smad7 mRNA expression in the liver, kidneys, duodenum, ileum, and colon was measured using primer probe set RTS1114.

[1] = Organ weights after oral gavage in beagle dogs (Example 12); settings: 200 mg oral gavage for 4 weeks, day 30
Description: (§1) Groups of 24-25 week old male beagle dogs were administered 200 mg Ionis human SMAD7 oligonucleotide by oral gavage once a week for 4 weeks. There were 4 animals per group. A control group of dogs received oral administration of distilled water. Dogs were sacrificed on day 30 approximately 48 hours after the final dose and organs and plasma were harvested for further analysis.

[2] = Pharmacokinetics: oligonucleotide concentration in the plasma on day 28 after oral gavage in beagle dogs (Example 12); type: in vivo; settings: 200 mg oral gavage
Description: There were 4 animals per group.
Plasma concentrations of Ionis oligonucleotides were also measured on Day 28 at various time points.

human SMAD7 mRNA [3] = experiment: Dose-dependent inhibition of human SMAD7 mRNA expression in A431 cells, oligonucleotide added without transfection (Example 5, Study 1); type: cell-based; settings: approximately 48 hours; for IC50: SMAD7 mRNA
Procedure, shortened: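 A431 cells dosed with antisense oligonucleotide at 0.08–20.00 μM by free uptake immediately after plating, 48 h at 37° C. SMAD7 mRNA quantified by qRT-PCR (primer probe set RTS5062), normalised to RiboGreen total RNA. Values are % inhibition versus untreated cells.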

[4] = Plasma chemistry markers after oral gavage in beagle dogs (Example 12); settings: 200 mg oral gavage for 4 weeks, plasma at day 30
Description: The study was conducted to evaluate the tolerability and pharmacodynamics of select human SMAD7 antisense oligonucleotides in beagle dogs following 4 weeks of treatment. The dogs were administered oligonucleotides by oral gavage.
as §1
To evaluate the effect of Ionis SMAD7 oligonucleotides on liver and kidney function, approximately 1.5 mL of blood samples were collected and put into tubes without anticoagulant for serum separation. The tubes were kept at room temperature for a minimum of 90 min and then centrifuged (approximately 3,000 rpm for 10 min) to obtain serum. Plasma levels of transaminases, albumin, bilirubin, and BUN were measured using an automated clinical chemistry analyzer (Toshiba 200FR Neo chemistry analyzer, Toshiba Co., Japan).

human SMAD7 mRNA [5] = experiment: Dose-dependent inhibition of human SMAD7 mRNA expression in Hep3B cells (Example 3, Study 1 and 2); type: cell-based; settings: electroporation; for % inhibition of SMAD7 mRNA expression: approximately 16 hours; for IC50: Study 2 (740-20000 nM)
Procedure, shortened: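 Hep3B cells, 20,000 per well, electroporated with antisense oligonucleotide at 0.31, 1.25, 5.00 or 20.00 μM (first series) or 0.74, 2.22, 6.67 or 20.00 μM (second series). After ~16 h, SMAD7 mRNA measured by RT-qPCR (RTS5062), normalised to RIBOGREEN total RNA. Percent inhibition vs untreated cells; IC50 derived.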

[6] = 740 nM, Study 2, relative to untreated control cells

Substance	% inhibition of SMAD7 mRNA expression (murine Smad7 mRNA; 0.25 μM)	% inhibition of SMAD7 mRNA expression (murine Smad7 mRNA; 0.74 μM)	% inhibition of SMAD7 mRNA expression (murine Smad7 mRNA; 2.22 μM)	% inhibition of SMAD7 mRNA expression (murine Smad7 mRNA; 6.67 μM)	% inhibition of SMAD7 mRNA expression (murine Smad7 mRNA; 20.00 μM)	IC50 (murine Smad7 mRNA)	Mouse Smad7 mRNA expression (% inhibition), Colon (mouse Smad7 mRNA)	Mouse Smad7 mRNA expression (% inhibition), Duodenum (mouse Smad7 mRNA)	% inhibition of SMAD7 mRNA expression (human SMAD7 mRNA [3]; 0.08 μM)	% inhibition of SMAD7 mRNA expression (human SMAD7 mRNA [3]; 0.25 μM)	% inhibition of SMAD7 mRNA expression (human SMAD7 mRNA [3]; 0.74 μM)	% inhibition of SMAD7 mRNA expression (human SMAD7 mRNA [3]; 2.22 μM)	% inhibition of SMAD7 mRNA expression (human SMAD7 mRNA [3]; 6.67 μM)	% inhibition of SMAD7 mRNA expression (human SMAD7 mRNA [3]; 20.00 μM)	IC50 (human SMAD7 mRNA [3])	% inhibition of SMAD7 mRNA expression (human SMAD7 mRNA [5]; [6])	% inhibition of SMAD7 mRNA expression (human SMAD7 mRNA [5]; 2220 nM, Study 2)	% inhibition of SMAD7 mRNA expression (human SMAD7 mRNA [5]; 6670.0 nM, Study 2)	% inhibition of SMAD7 mRNA expression (human SMAD7 mRNA [5]; 20000.0 nM, Study 2)	IC50 (human SMAD7 mRNA [5])	also measured
790615 (CCAATGAGAATGCTTC; 3-10-3 cEt gapmer, further chemistry not given here) [compound 790615]	7%	18%	37%	47%	64%	7.3 µM	72 % inhibition	54 % inhibition	14%	43%	55%	63%	70%	75%	0.7 µM						Mouse Smad7 mRNA expression (% inhibition), Ileum (mouse Smad7 mRNA): 0 % inhibition; Mouse Smad7 mRNA expression (% inhibition), Kidney (mouse Smad7 mRNA): 41 % inhibition; Mouse Smad7 mRNA expression (% inhibition), Liver (mouse Smad7 mRNA): 52 % inhibition; Kidney weight (% of control) [1]: 94 % of control; Liver weight (% of control) [1]: 85 % of control; Spleen weight (% of control) [1]: 106 % of control; Oligonucleotide concentration in the plasma on day 28 ([2]; 2 hr): 16.7 ng/mL; Oligonucleotide concentration in the plasma on day 28 ([2]; 4 hr): 4.8 ng/mL; Oligonucleotide concentration in the plasma on day 28 ([2]; 8 hr): 0.5 ng/mL; Oligonucleotide concentration in the plasma on day 28 ([2]; 24 hr): 0.0 ng/mL; ALT (% of control) [4]: 118 % of control; AST (% of control) [4]: 147 % of control; Albumin (% of control) [4]: 98 % of control; BUN (% of control) [4]: 108 % of control; Bilirubin (% of control) [4]: 102 % of control
798781 (CGTAAGATTCACAGCA; 3-10-3 cEt gapmer, further chemistry not given here) [compound 798781]	0%	0%	20%	33%	51%	19.8 µM	0 % inhibition	47 % inhibition	23%	34%	41%	41%	57%	62%	3.6 µM	46%	64%	81%	87%	2000 nM	Mouse Smad7 mRNA expression (% inhibition), Ileum (mouse Smad7 mRNA): 0 % inhibition; Mouse Smad7 mRNA expression (% inhibition), Kidney (mouse Smad7 mRNA): 12 % inhibition; Mouse Smad7 mRNA expression (% inhibition), Liver (mouse Smad7 mRNA): 0 % inhibition; Kidney weight (% of control) [1]: 86 % of control; Liver weight (% of control) [1]: 91 % of control; Spleen weight (% of control) [1]: 102 % of control; Oligonucleotide concentration in the plasma on day 28 ([2]; 2 hr): 18.7 ng/mL; Oligonucleotide concentration in the plasma on day 28 ([2]; 4 hr): 5.4 ng/mL; Oligonucleotide concentration in the plasma on day 28 ([2]; 8 hr): 3.6 ng/mL; Oligonucleotide concentration in the plasma on day 28 ([2]; 24 hr): 0.4 ng/mL; ALT (% of control) [4]: 115 % of control; AST (% of control) [4]: 114 % of control; Albumin (% of control) [4]: 101 % of control; BUN (% of control) [4]: 104 % of control; Bilirubin (% of control) [4]: 114 % of control
829994 (GGAGGCAGGGCCGCGA; 3-10-3 cEt gapmer, further chemistry not given here) [compound 829994]																25%	54%	69%	80%	1000 nM	
830037 (antisense CTATTGGCTGATCTGG; 3-10-3 cEt gapmer, further chemistry not given here) [compound 830037]	0%	6%	1%	0%	0%	> 20 µM			10%	31%	29%	42%	61%	67%	3.4 µM	30%	56%	70%	87%	3000 nM	
830121 (AGAATCAAGCCCTGGC; 3-10-3 cEt gapmer, further chemistry not given here) [compound 830121]	0%	6%	12%	17%	20%	> 20 µM			11%	18%	27%	21%	35%	44%	> 20 µM	37% and 54%	48% and 63%	69% and 79%	85% and 86%	< 700 nM	
